Data from US12403184B2, “Compositions and methods for treating neurodegenerative disroders” (priority 2018, dated 2025).
Where no end group is shown, it is not given here.

Key:
HD R6/2 mice [1] = assay: Striatal neuropathology in R6/2 mice (DARPP-32 immunohistochemistry, Golgi-Cox staining, striatum volume); assay type: in vivo, mouse
Protocol: Mice were deeply anesthetized and transcardially perfused with 4% paraformaldehyde in PBS. Brains were processed for paraffin embedment. Brain sections (10 μm, coronal) were used for immunohistochemical localization of DARPP-32 (1:500, Abcam) or ATAD3A (1:200, Genetex) using the IHC Select HRP/DAB kit (Millipore). Quantitation of DARPP-32 immunostaining was conducted using NIH image J software. The same image exposure times and threshold settings were used for sections from all treatment groups. An experimenter blinded to the experimental groups conducted the quantitation.
Coronal sections (10 μm) spaced 200 μm apart throughout the striatum will be stained with anti-NeuN (Sigma, MAB377, 1:200 dilution) antibody followed by secondary antibodies and detection with diaminobenzidine (DAB, Pierce). The perimeter of the striatum will be traced in each of the serial sections using a ×2 objective. For the volume estimation, consecutive sections (an average of 10-15 sections/animal) will be visualized and the perimeter of the striatum will be outlined. The striatal volume will be estimated by multiplying the sum of all the sectional areas (mm2) by the distance between successive sections (200 μm).
Dendrite morphology of medium spiny neurons in wildtype and HD R6/2 mice was analyzed by Golgi-Cox staining using Novaultra Golgi-Cox Stain Kit (IHCWorld, SKU IW-3023). Briefly, mice were deeply anesthetized and transcardially perfused with 4% paraformaldehyde in PBS. After thoroughly washing with PBS overnight, mouse brains were immersed in the Golgi-Cox solution in dark at room temperature, then replaced with fresh Golgi-Cox Solution after 2 days of immersion and continued the impregnation at room temperature in dark for 14 days following the manufactory instruction. After washing with PBS for 2 days, serial coronal sections of 200 μm thick were cut on Vibratome Series 1000 Sectioning System. […] Total dendritic length per neuron was measured using NIH Image J plug-in simple neurite tracer.

HD R6/2 mice [2] = assay: Body weight, survival and behavior in HD R6/2 mice; assay type: in vivo, mouse
Protocol: Male R6/2 mice and their wild-type (WT) littermates (5 weeks old) were purchased from Jackson Laboratories [Bar Harbor, ME; B6CBA-TgN (HD exon1) 62; JAX stock number: 006494]. These mice (C57BL/6 and CBA genetic background) are transgenic for the 5′ end of the human HD gene carrying 100-150 glutamine (CAG) repeats.
Systemic peptide treatment in HD mice. All randomization and peptide treatments were prepared by an experimenter not associated with behavioral and neuropathology analysis. Male R6/2 mice (Tg) and their age-matched wild-type littermates (Wt) (6-week-old) were implanted with a 28-day osmotic pump (Alzet, Cupertino CA, Model 2004) containing TAT control peptide or DA1 peptide, which delivered peptides at a rate of 1 mg/kg/day. Male YAC128 mice (Tg) and their age-matched wild-type littermates (WT) were treated with TAT control peptide or DA1 peptide (1 mg/kg/day) by Alzet osmotic pump starting from the age of 3 months. The pump was replaced once every month.
Gross locomotor activity was assessed in R6/2 mice and age-matched wild-type littermates at the ages of 12 weeks, and in YAC128 mice and age-matched wildtype littermates at the ages of 2, 3, 6, 9, and 12 months. The mice were placed in the center of an activity chamber (Omnitech Electronics, Inc) and allowed to explore while being tracked by an automated beam system (Vertax, Omnitech Electronics Inc). Distance moved, horizontal and vertical activities were recorded. In R6/2 mice and wildtype littermates, one-hour locomotor activity was conducted. In YAC128 mice and wildtype littermates, 24 h of locomotor activity analysis was performed.
Hindlimb clasping was assessed with the tail suspension test once a week from the ages 8 to 12 weeks in R6/2 mice. The mice were suspended by the tail for 60 s, and the latency for the hindlimbs or all four paws to clasp was recorded using the score system: Clasping over 10 s, score 3; 5-10 s, score 2; 0-5 s, score 1; and 0 s, score 0.
The body weight and survival rate of HD mice and wild-type littermates were recorded throughout the study period.

Drp1 = Drp1 mitochondrial level and Drp1 polymerization by western blot in HD mouse striatal cells; assay type: cell-based
Protocol: Cells were washed with cold phosphate-buffered saline (PBS) and incubated on ice in mitochondrial lysis buffer (250 mM sucrose, 20 mM HEPES-NaOH, pH 7.5, 10 mM KCl, 1.5 mM MgCl2, 1 mM EDTA, 1 mM EGTA, protease inhibitor cocktail, and phosphatase inhibitor cocktail) for 30 min. The cells were scraped and then disrupted 15 times by repeated aspiration through a 25-gauge needle. Mouse brains were minced and homogenized in mitochondrial lysis buffer to release mitochondria. The homogenates were spun at 800×g for 10 min at 4° C., and the resulting supernatants were spun at 12,000×g for 20 min at 4° C. The pellets were washed with lysis buffer and spun at 12,000×g again for 20 min at 4° C. The final pellets were suspended in lysis buffer containing 1% Triton X-100 and were mitochondrial-rich lysate fractions. The mitochondrial protein voltage-dependent anion channel (VDAC) was used as a loading control.
Protein concentration was measured by protein assay dye reagents (Bio-rad). The protein was resuspended in Laemmli buffer, loaded on SDS-PAGE, and transferred onto nitrocellulose membranes. Membranes were probed with the indicated antibodies, followed by visualization with ECL. Representative blots have been cropped for presentation.

[3] = R6/2 mice at the age of 12 weeks

For “YGRKKRRQRRRGGEDKRKT-NH2 [DA1, YGRKKRRQRRR-GG-EDKRKT-NH2]”, which “dendritic morphology of MSN (Golgi-Cox staining)” value (HD R6/2 mice [1]) is on record?
Its value is “improved”.

And the striatum volume (HD R6/2 mice [1])?
Its striatum volume is “increased”.

And the “area occupied by DARPP-32-immunostained cells in the striatum” value (HD R6/2 mice [1]; 12 weeks old)?
Its value is “increased”.

What about the body weight loss (HD R6/2 mice [2]; HD R6/2 mice, 1 mg/kg/day from 6 weeks, vs TAT) of the same substance?
Its body weight loss is “moderately suppressed”.

What about the survival (HD R6/2 mice [2]; HD R6/2 mice, age 6 to 21 weeks, 1 mg/kg/day) of the same substance?
The survival was “greatly prolonged”.

What about the horizontal activity (HD R6/2 mice [2]; [3]) of the same substance?
The horizontal activity was “increased”.

What about the total traveled distance (HD R6/2 mice [2]; [3]) of the same substance?
Its total traveled distance is “increased”.

What about the “severity of clasping behavior” value (HD R6/2 mice [2]; R6/2 mice, four-week observation period) of the same substance?
The value was “reduced”.

What about the Drp1 polymerization (Drp1; HD mouse striatal cells) of the same substance?
The Drp1 polymerization was “abrogated”.

What about the “Drp1 translocation to the mitochondria” value (Drp1; HD mouse striatal cells, 1 μM/day for 4 days) of the same substance?
Its value is “abrogated”.

What about the “inhibitory effect on Drp1 tetramer formation” value (Drp1; upon ATAD3A knockdown) of the same substance?
The value was “abolished upon ATAD3A knockdown”.
